{
  "source": "patent US20230364271A1",
  "about": "“METHODS AND COMPOSITIONS FOR INCREASING UPTAKE, INTERNALIZATION, AND/OR RETENTION OF SMALL MOLECULE LIGANDS” (CORNELL UNIVERSITY, priority 2020, published 2023)",
  "key": {"LNCaP cells": {"tested_on": "LNCaP cells", "assay": "Retention of internalized Lu^177-labelled agent in LNCaP cells (Example 1)", "type": "cell-based, human", "details": "for efflux out of the cells after internalization: 2 human prostate cancer cell lines (LNCaP and CWR22Rv1); for cell-associated counts retained: LNCaP", "method": "(§1) LNCaP or CWR22Rv1 cells were plated into 12-well plates overnight. Lu^177-J591 (0.5 μci/ml/well) or Lu^177-PSMA-617 (0.5 μci/ml/well) was then added, and the cells were incubated for 6 hours at 37° C. to allow internalization. Duplicate wells were used for each time point. After 6 hours of incubation, the cells were washed once with RPMI-10% FBS. 0.6 ml of 1% TritonX-100 was added per well for 2 wells as 0 time point, and 1.5 ml of RPMI-10% FBS was added to the remaining wells. The cells were incubated at 37° C. for 1 to 6 days. On day 1, 2, 3, 5, and 6, the medium was removed and 0.6 ml of 1% TritonX-100 was added to each well. The lysate was collected from each well and all samples were counted at day 6. Results are shown in Table 1 below (in % of time 0 counts) and FIGS. 1A-1B."}, "CWR22Rv1 cells": {"tested_on": "CWR22Rv1 cells", "assay": "Retention of internalized Lu^177-labelled agent in CWR22Rv1 cells (Example 1)", "type": "cell-based, human", "method": "as §1"}, "CWR22rv1 tumors": {"tested_on": "CWR22rv1 tumors", "assay": "Tumor uptake of PSMA-617-Lu^177 in CWR22rv1 xenografts with cold antibody (Example 4)", "type": "in vivo, BALB/c nude mice", "details": "PSMA-617-Lu^177 300 μci IV with PBS, day 3 post-injection, average", "method": "CWR22rv1 cells (5×10^6 cells/200 μl matrigel/mouse) were injected into 40 BALB/c nude mice. After tumors were established and growing, all mice were injected intravenously (IV) via tail vein with PSMA-617-Lu^177 (300 μci/per mouse) on day 0. The treatment groups were as follows.\nAll mice were euthanized 3 days after injection of PSMA-617-Lu^177. All tumors were harvested, weighed individually, and radioactivity counted."}},
  "data": [
    {"smiles": "O=C([O-])CN1CCN(CC(=O)[O-])CCN(CC(=O)NCC2CCC(C(=O)N[C@@H](Cc3ccc4ccccc4c3)C(=O)NCCCC[C@H](NC(=O)N[C@@H](CCC(=O)O)C(=O)O)C(=O)O)CC2)CCN(CC(=O)[O-])CC1.[177Lu+3]", "note": "(stereo partly drawn) [Lu^177-PSMA-617]", "values": [
      {"measurement": "efflux out of the cells after internalization", "setting": "LNCaP cells; listed as PSMA 617-Lu^177", "value": "rapidly effluxed back out of the cell soon after internalization"},
      {"measurement": "efflux out of the cells after internalization", "setting": "LNCaP cells; listed as small molecule ligand", "value": "rapidly effluxed out of the cells"},
      {"measurement": "cell-associated counts retained", "setting": "LNCaP cells; 0 time (after 6 h incubation)", "value": "100.00 % of time 0 counts"},
      {"measurement": "cell-associated counts retained", "setting": "LNCaP cells; Day 1", "value": "52.21 % of time 0 counts"},
      {"measurement": "cell-associated counts retained", "setting": "LNCaP cells; Day 2", "value": "56.06 % of time 0 counts"},
      {"measurement": "cell-associated counts retained", "setting": "LNCaP cells; Day 3", "value": "42.80 % of time 0 counts"},
      {"measurement": "cell-associated counts retained", "setting": "LNCaP cells; Day 5", "value": "39.12 % of time 0 counts"},
      {"measurement": "cell-associated counts retained", "setting": "LNCaP cells; Day 6", "value": "35.82 % of time 0 counts"},
      {"measurement": "cell-associated counts retained", "setting": "CWR22Rv1 cells; CWR22Rv1, 0 time (after 6 h incubation)", "value": "100.00 % of time 0 counts"},
      {"measurement": "cell-associated counts retained", "setting": "CWR22Rv1 cells; CWR22Rv1, Day 1", "value": "24.37 % of time 0 counts"},
      {"measurement": "cell-associated counts retained", "setting": "CWR22Rv1 cells; CWR22Rv1, Day 2", "value": "23.99 % of time 0 counts"},
      {"measurement": "cell-associated counts retained", "setting": "CWR22Rv1 cells; CWR22Rv1, Day 3", "value": "10.28 % of time 0 counts"},
      {"measurement": "cell-associated counts retained", "setting": "CWR22Rv1 cells; CWR22Rv1, Day 5", "value": "9.39 % of time 0 counts"},
      {"measurement": "cell-associated counts retained", "setting": "CWR22Rv1 cells; CWR22Rv1, Day 6", "value": "7.64 % of time 0 counts"},
      {"measurement": "tumor radioactivity", "setting": "CWR22rv1 tumors", "value": "150 cpm/mg of tumor"}
    ]}
  ]
}
